This note sets out measurements from PMC4366150, “Inhibiting EGFR Dimerization Using Triazolyl-Bridged Dimerization Arm Mimics” (PLoS ONE, 2015).

Positions of bridges follow the written chain, without caps; N, C: chain ends. Non-standard residues stand in square brackets, D forms with d. Residues, ends and D or L forms follow the SMILES beside them. Triazole bridges read from a SMILES are 1,4-linked. *: point of attachment. 5FAM = O=C1OC2(c3ccc(O)cc3Oc3cc(O)ccc32)c2ccc(C(=O)*)cc21; Aha = [N-]=[N+]=NCC[C@H](N)C(=O)O; Nle = CCCC[C@H](N)C(=O)O; Pra = C#CC[C@H](N)C(=O)O; βAla = NCCC(=O)O

What all share (assay type): cell-based
One test deals with PC-3 cells. In words: Cell viability, Cell Titer Blue, PC-3. The settings on record: 6.25 μM, dosed daily for 5 days, average of quadruplicates. How it is done:
(§1) Fig 5 EDA2 down-regulates activated EGFR and reduces cell viability. (a) Cells were stimulated with 50 ng/mL EGF for 5 min in the presence or absence of EDA peptides, followed by western blotting. An apparent decrease in phosphorylated EGFR was observed when treated with EDA2. Vertical lines indicate non-adjacent samples from the same western blot. […] Data is plotted as the average of at least three experiments, where error bars represent SEM. * p < 0.05, ** p < 0.01 relative to the EGF-stimulated control. All remaining means are not significant (p > 0.05) relative to the EGF-stimulated control. (c) A panel of cell lines was dosed daily with EDA2 or gefitinib for 5 days, and viability was quantified using the Cell Titer Blue assay. […]
(§2) Since EDA2 appeared to downregulate EGFR phosphorylation, we sought to determine whether this activity could also lead to a decrease in cell viability (Fig. 5c). Three diverse, EGFR-expressing cell lines (MDA-MB-231, PC-3, and BxPC-3) were dosed daily with EDA2 over a 0–50 μM concentration range over a five-day time course, after which cell viability was quantified using the Cell Titer Blue assay. […]
(§3) MDA-MB-231, PC-3, or Bx-PC3 cells were seeded at 7,500 cells/well in a 96 well plate and allowed to adhere in RPMI-1640 containing 1% FBS. […] Fluorescence was quantified using 530 nm excitation and 590 nm emission filters. […]
(In general: Resazurin is reduced to fluorescent resorufin, in cell work by metabolically active cells.)

The subject of a further test is MDA-MB-231 cells. In words: Cell viability, Cell Titer Blue, MDA-MB-231. The settings on record: 6.25 μM, dosed daily for 5 days, average of quadruplicates. On the procedure:
as §1, §2, §3

For another test, the target named is T1, total EGFR (Homo sapiens, UniProt P00533).
T1 construct: EGFR autophosphorylation on Tyr1068 in intact MDA-MB-231 cells; endogenous in cells; host or cells: MDA-MB-231 (ATCC)
The experiment in a line: Total EGFR protein levels in MDA-MB-231 cells, western blot. The settings on record: peptide 30 min, 50 ng/mL EGF 5 min, western blot normalized to tubulin, average of two experiments. On the procedure:
(§4) The EDA peptides were first tested to see if they could downregulate EGFR activation. Receptor activation was monitored as a function of EGFR autophosphorylation on Tyr1068 in intact MDA-MB-231 cells (Fig. 5a and b and S3 Fig.). The receptor was stimulated with EGF for 5 min following a 30 min peptide pretreatment.
While EDA2 downregulates receptor phosphorylation, we also wanted to investigate whether EGFR dimerization itself was inhibited. As a strategy to measure the number of detectable EGFR dimers in intact cells, a quantitative Proximity Ligation Assay (PLA) was performed (Fig. 6). Cells were stimulated with EGF in the presence or absence of EDA2 or its scramble control (EDA2-Scr). […] Fluorescence microscopy was used to visualize the DAPI and PLA signals.
Proteins were separated by 8% SDS-PAGE then transferred onto PVDF membrane. […] Bands were visualized by chemiluminescence and quantified using Licor Image Studio Lite. […] Significance values were calculated using two-way ANOVA with Bonferonni multiple-comparison test. […] Significance values were calculated using one-way ANOVA with Bonferonni multiple-comparison test.
Supplementary file pone.0118796.s004.tif: S4 Fig The effect of EDA2 and its controls on total EGFR protein levels in the cell. […] Cells were immediately lysed and total EGFR levels were analyzed by western blotting. […]
On the technique in general: Immunoblotting shows a protein as a band on a membrane.

The subject of the next test is BxPC-3 cells. The experiment in a line: Cell viability, Cell Titer Blue, BxPC-3. The settings on record: 6.25 μM, dosed daily for 5 days, average of quadruplicates. How it is done:
as §1, §2, §3

The test system of the next test is EGFR p-Tyr1068. In words: EGFR phosphorylation (Tyr1068) in MDA-MB-231 cells, western blot. The settings on record: 30 min pretreatment, 50 ng/mL EGF 5 min. On the procedure: as §4
as §1, with “All remaining means are not significant (p > 0.05) relative to the EGF-stimulated control.” left out
Proteins were separated by 8% SDS-PAGE then transferred onto PVDF membrane. […] Bands were visualized by chemiluminescence and quantified using Licor Image Studio Lite. […] Significance values were calculated using two-way ANOVA with Bonferonni multiple-comparison test. […] Significance values were calculated using one-way ANOVA with Bonferonni multiple-comparison test. […]

For `CCCC[C@@H]1NC(=O)[C@H](CCC(N)=O)NC(=O)[C@H](Cc2ccc(O)cc2)NC(=O)[C@H]([C@@H](C)O)NC(=O)[C@H]([C@@H](C)O)NC(=O)[C@@H]2CCCN2C(=O)[C@H](CC(N)=O)NC(=O)[C@H](Cc2ccc(O)cc2)NC(=O)[C@@H](NC(=O)c2ccc3c(c2)C(=O)OC32c3ccc(O)cc3Oc3cc(O)ccc32)Cc2cn(nn2)CC[C@@H](C(N)=O)NC1=O` [EDA2] (5FAM-[Pra]YNPTTYQ[Nle][Aha]-NH2; triazole 1-10), the “reduction of cell viability” value in the test on PC-3 cells was 72%; in the test on MDA-MB-231 cells, 50%; in the test with BxPC-3 cells, 34%. Further, the “effect on EGFR expression (total EGFR) (in words)” value on total EGFR is reported as “no effect”. For the same compound, the “reduction of EGFR phosphorylation (Tyr1068) compared to untreated cells” value with EGFR p-Tyr1068 (5 μM peptide, normalized to tubulin, average of at least three experiments) is recorded as “greater than 60%”.
Take `CCCC[C@H](NC(=O)[C@H](CCC(N)=O)NC(=O)[C@H](Cc1ccc(O)cc1)NC(=O)[C@@H](NC(=O)[C@@H](NC(=O)[C@@H]1CCCN1C(=O)[C@H](CC(N)=O)NC(=O)[C@H](Cc1ccc(O)cc1)NC(=O)[C@H](C)NC(=O)CCNC(=O)c1ccc2c(c1)C(=O)OC21c2ccc(O)cc2Oc2cc(O)ccc21)[C@@H](C)O)[C@@H](C)O)C(=O)N[C@@H](C)C(N)=O` [non-modified control, reference compound] ({5FAM-βAla}-AYNPTTYQ[Nle]A-NH2): the “effect on EGFR phosphorylation (Tyr1068) (in words)” value with EGFR p-Tyr1068 (0.05, 0.5 or 5 μM peptide, western blot) is reported as “no inhibitory effect”.
